Columns and labels:
[1] = target: recombinant ceramidase from Pseudomonas aeruginosa PA01 (Pseudomonas aeruginosa, UniProt Q9I596); assay: Inhibition of recombinant Pseudomonas aeruginosa PA01 ceramidase, quenched fluorescent ceramide analog substrate; format: biochemical; conditions: for capability of inhibiting Pseudomonas aeruginosa ceramidase: known human ceramidase inhibitors, various concentrations, assay buffer containing 20 μM of substrate; for ceramidase inhibition ability, comparison in words: comparison among examples 1-9
Chain of recombinant ceramidase from Pseudomonas aeruginosa PA01 (Q9I596 25-670): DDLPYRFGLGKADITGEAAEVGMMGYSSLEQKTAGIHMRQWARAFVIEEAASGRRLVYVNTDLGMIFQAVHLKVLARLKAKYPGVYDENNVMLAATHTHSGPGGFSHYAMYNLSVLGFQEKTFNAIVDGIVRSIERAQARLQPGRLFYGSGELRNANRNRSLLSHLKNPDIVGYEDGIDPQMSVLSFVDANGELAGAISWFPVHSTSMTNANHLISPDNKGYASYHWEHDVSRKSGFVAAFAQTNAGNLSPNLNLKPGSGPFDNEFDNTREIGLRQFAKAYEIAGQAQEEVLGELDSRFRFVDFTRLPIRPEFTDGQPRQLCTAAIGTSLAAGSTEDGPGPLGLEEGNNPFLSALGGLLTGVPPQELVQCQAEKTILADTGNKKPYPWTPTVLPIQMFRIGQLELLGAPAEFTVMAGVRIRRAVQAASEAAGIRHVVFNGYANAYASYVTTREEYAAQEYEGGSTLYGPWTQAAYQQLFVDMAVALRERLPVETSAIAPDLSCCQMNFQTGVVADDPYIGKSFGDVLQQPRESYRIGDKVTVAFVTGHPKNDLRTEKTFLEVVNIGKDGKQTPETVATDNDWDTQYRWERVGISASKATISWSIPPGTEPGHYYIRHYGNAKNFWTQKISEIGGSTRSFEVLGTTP
Method: The effect of various active compounds on the enzymatic activity of recombinant ceramidase from Pseudomonas aeruginosa PA01 was tested.
The assays were performed at 25° C., with magnetic stirring, using Photo Technology International fluorimeter equipped with a LPS 220 Lamp Power Supply, a 810 Photomultiplier Detector System, a MD 5020 Motor Driver, and a Dell Dimensions M166a computer with FELIX® software. Excitation was done at 346 nm (±2 nm) and the emission was measured at 378 nm (±2 nm).The assay buffer consisted of 50 mM Tris/HCl, 4 mM CaCl2, 0.1% w/v Triton X-100, pH 8.5.
The active compounds were dissolved in DMF (dimethylformamide) to a concentration of 4 mM. Of these solutions, 250 μliter was added to 50 milliliter assay buffer under vortex, yielding 20 μM lipid solutions.
To 1 mL of the lipid solution in a cuvet, 5 μL of quenched fluorescent ceramide analog as a substrate was added (end concentration 2 μM) and the system was allowed to equilibrate for 5 minutes. Then 5 μL of recombinant ceramidase was added (end concentration 4.3 nM). The reaction was allowed to proceed for 20 minutes. The slope at 378 nm was used to determine the reaction rate.
Control experiments were done in the absence of sphingolipids, with corresponding amounts of DMF (0.5% v/v for the 20 μM samples). The reaction rate of the controls was set at 100%. The percentages in the table are given as % of inhibition (control value—reaction rate of the sample).
The potential of several known human ceramidase inhibiting compounds of inhibiting Pseudomonas aeruginosa PA01 ceramidase was tested at various concentrations, in the assay buffer containing 20 μM of substrate.
The potential of several ceramide and sphingoid bases of inhibiting Pseudomonas aeruginosa PA01 ceramidase was tested at a pH of 8.5, using respectively, 2 μM and 20 μM of ceramidase substrate, 1.6 mM Triton X-100 and 4 mM of CaCl2.

[2] = target: T1, ceramidase originating from mitochondria of rat brain (Rattus norvegicus, UniProt Q91XT9); conditions: cited from earlier work
T1 construct: host or cells: rat brain mitochondria
T1 sequence (Q91XT9 whole entry): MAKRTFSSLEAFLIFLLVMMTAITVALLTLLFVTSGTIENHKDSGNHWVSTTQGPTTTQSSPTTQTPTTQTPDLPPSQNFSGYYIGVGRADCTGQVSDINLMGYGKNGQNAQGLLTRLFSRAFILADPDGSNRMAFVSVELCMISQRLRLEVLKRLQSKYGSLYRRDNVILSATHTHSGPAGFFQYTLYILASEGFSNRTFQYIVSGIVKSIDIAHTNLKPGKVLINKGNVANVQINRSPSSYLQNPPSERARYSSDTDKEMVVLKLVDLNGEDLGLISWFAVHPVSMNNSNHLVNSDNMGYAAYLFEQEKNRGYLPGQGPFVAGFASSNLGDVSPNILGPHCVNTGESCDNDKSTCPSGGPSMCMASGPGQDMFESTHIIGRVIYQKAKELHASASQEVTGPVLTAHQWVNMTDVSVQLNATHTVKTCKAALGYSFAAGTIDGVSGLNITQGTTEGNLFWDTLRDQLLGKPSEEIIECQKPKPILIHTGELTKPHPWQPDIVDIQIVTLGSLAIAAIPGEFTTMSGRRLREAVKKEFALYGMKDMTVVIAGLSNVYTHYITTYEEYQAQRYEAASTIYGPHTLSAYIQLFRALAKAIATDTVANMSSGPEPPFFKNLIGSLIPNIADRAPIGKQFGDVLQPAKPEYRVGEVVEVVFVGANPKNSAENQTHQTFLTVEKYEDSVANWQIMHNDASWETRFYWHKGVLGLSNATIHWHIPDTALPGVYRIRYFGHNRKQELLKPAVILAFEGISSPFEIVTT

[3] = target: T2, human alkaline ceramidase (aPHC) (Homo sapiens, UniProt Q9NUN7); conditions: in vitro and in cells; cited from earlier work
T2 construct: host or cells: yeast mutant strain (as cited)
T2 sequence (Q9NUN7 1-267): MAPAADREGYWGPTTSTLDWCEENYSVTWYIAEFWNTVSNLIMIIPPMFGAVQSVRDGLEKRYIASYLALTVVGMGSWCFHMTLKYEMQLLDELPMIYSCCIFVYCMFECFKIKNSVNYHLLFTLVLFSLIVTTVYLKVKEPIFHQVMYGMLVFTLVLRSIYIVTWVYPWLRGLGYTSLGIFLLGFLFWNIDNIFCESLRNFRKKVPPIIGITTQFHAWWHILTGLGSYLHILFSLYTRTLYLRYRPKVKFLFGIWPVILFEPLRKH

[4] = tested on: ceramidase originating from guinea pig epidermis; conditions: in vitro; cited from earlier work
[5] = 20 μM active compound, pH 8.5, 25° C., 4 mM CaCl2, Triton X-100, control rate = 100%

Row | SMILES | % of inhibition [1, 5] | capability of inhibiting Pseudomonas aeruginosa ceramidase [1] | other results
1 | CCCCCCCCCCCCCCCCC(O)C(=O)N[C@@H](CO)[C@H](O)[C@H](O)CCCCCCCCCCCCCC (stereo partly drawn) [Ceramide VI] | 11% |  | 
2 | C[C@@H](N)[C@@H](O)c1ccccc1 [D(+)-norephenidrin, reference compound] |  | None of these compounds was found capable of inhibiting | 
3 | CCCCCCCCCCCCCC(=O)N[C@H](C)[C@@H](O)c1ccccc1 [D-erytro-MAPP, (1S,2R)-D-erythro-2-(N-myristoylamino)-1-phenyl-1-propanol, reference compound] |  | None of these compounds was found capable of inhibiting | 
4 | CCCCCCCCCCCCCCC[C@H](O)[C@H](N)CO [D/L sphinganine] | 83% |  | 
5 | CCCCCCCCCCCCC/C=C/[C@@H](O)[C@@H](N)CO [D—erythro—sphingosine] | 97% |  | ceramidase inhibition ability, comparison in words [1]: highest ceramidase inhibition ability
6 | C[C@H](N)[C@H](O)c1ccccc1 [L(−)-norephenidrin, reference compound] |  | None of these compounds was found capable of inhibiting | 
7 | CCCCCCCCCCCCCC(=O)N[C@@H](C)[C@H](O)c1ccccc1 [L-erythro-MAPP, reference compound] |  | None of these compounds was found capable of inhibiting | 
8 | CCCCCCCCCCCCC/C=C/[C@H](O)[C@H](N)CO [L—erythro—sphingosine] | 20% |  | 
9 | CCCCCCCCCCCCCC[C@@H](O)[C@@H](O)[C@H](CO)NC(C)=O [MAPS, N-monoacetyl phytosphingosine] | 35% |  | 
10 | CCCCCCCC/C=C\CCCCCCCC(=O)NCCO [N-oleoylethanolamine, reference compound] |  | None of these compounds was found capable of inhibiting | 
11 | CCCCCCCCCCCCCC[C@@H](O)[C@@H](O)[C@H](CO)NC(C)=O [N—acetyl—phytosphingosine] | 9% |  | 
12 | CCCCCCCCCCCCCC[C@@H](O)[C@@H](O)[C@@H](N)CO.Cl [Phytosphingosine.HCl] | 67% |  | % of inhibition ([1]; 2 μM active compound, pH 8.5, 25° C., 4 mM CaCl2, Triton X-100, control rate = 100%): 15%; ceramidase inhibition ability, comparison in words [1]: better ceramidase inhibiting effect than phytosphingosine
13 | CCCCCCCCCCCCCC[C@@H](O)[C@@H](O)[C@@H](N)CO [Phytosphingosine] |  |  | inhibition at 2 µM ([1]; pH 8.5, 2 μM active compound, pH 8.5, 25° C., 4 mM CaCl2, Triton X-100, control rate = 100%): 7.5%; inhibition at 20 µM ([1]; pH 8.5, read-out: % of inhibition, 20 μM active compound, pH 8.5, 25° C., 4 mM CaCl2, Triton X-100, control rate = 100%): 60%
14 | CCCCCCCCCCCCCCC(OC(C)=O)C(OC(C)=O)C(COC(C)=O)NC(C)=O (stereo not drawn) [TAPS, tetraacetyl-phytosphingosine] | 22% |  | 
15 | CCCCCCCCCCCCC/C=C/[C@@H](O)[C@@H](N)CO [sphingosine] |  |  | inhibition of ceramidase [2]: capable of inhibiting ceramidase; inhibition of human alkaline ceramidase [3]: inhibited by sphingosine; inhibition of ceramidase [4]: inhibiting ceramidase

Reference: patent publication US20030064936A1 (priority 2001, published 2003)
